Data published in patent US9907757B2, “Coated particles and pharmaceutical dosage forms” (Lek Pharmaceuticals d.d., priority 2003, dated 2018).

Test: Oxidative degradation of amorphous and polymorphic forms of atorvastatin at 80° C. in air and oxygen (liquid chromatography)
Format: physicochemical
Settings: hemicalcium salt; for Sensitivity to oxygen and oxidation (conclusion): from 80° C., 3 days, air/oxygen study; for Increase of degradation products %: in respect to reference samples stored at 4° C.
Method: The influence of oxygen on occurrence of degradation products of amorphous and four polymorphic forms of atorvastatin was investigated. The samples of amorphous atorvastatin and polymorphic forms I to IV of atorvastatin were exposed at 80° C. in normal (air) and oxygen atmosphere for 3 days. The assay of oxidation products was determined by liquid chromatography. All of the chosen forms of atorvastatin stored at 4° C. were analyzed as the reference samples.

[1] = stored at 80° C. 3 days in normal (air) atmosphere
[2] = stored at 80° C. 3 days in oxygen atmosphere

Row | Structure (SMILES) | Sensitivity to oxygen and oxidation (conclusion) | Increase of degradation products % [1] [%] | Increase of degradation products % [2] [%] | Sensitivity to oxygen and oxidation (conclusion) (listed as amorphous atorvastatin)
1 | CC(C)c1c(C(=O)Nc2ccccc2)c(-c2ccccc2)c(-c2ccc(F)cc2)n1CC[C@@H](O)C[C@@H](O)CC(=O)O.CC(C)c1c(C(=O)Nc2ccccc2)c(-c2ccccc2)c(-c2ccc(F)cc2)n1CC[C@@H](O)C[C@@H](O)CC(=O)O.CC(C)c1c(C(=O)Nc2ccccc2)c(-c2ccccc2)c(-c2ccc(F)cc2)n1CC[C@@H](O)C[C@@H](O)CC(=O)[O-].CC(C)c1c(C(=O)Nc2ccccc2)c(-c2ccccc2)c(-c2ccc(F)cc2)n1CC[C@@H](O)C[C@@H](O)CC(=O)[O-].[Ca+2] (relative stereo) [Crystalline form III, (R-(R*,R*))-2-(4-fluorophenyl-beta, delta-dihydroxy-5-(1-methylethyl)-3-phenyl-4-((phenylamino)carbonyl)-1H-pyrrole-1-heptanoic acid hemicalcium salt] | slightly sensitive to oxidation | 0.11 | 0.47 | –
2 | CC(C)c1c(C(=O)Nc2ccccc2)c(-c2ccccc2)c(-c2ccc(F)cc2)n1CC[C@@H](O)C[C@@H](O)CC(=O)O.CC(C)c1c(C(=O)Nc2ccccc2)c(-c2ccccc2)c(-c2ccc(F)cc2)n1CC[C@@H](O)C[C@@H](O)CC(=O)O.CC(C)c1c(C(=O)Nc2ccccc2)c(-c2ccccc2)c(-c2ccc(F)cc2)n1CC[C@@H](O)C[C@@H](O)CC(=O)[O-].CC(C)c1c(C(=O)Nc2ccccc2)c(-c2ccccc2)c(-c2ccc(F)cc2)n1CC[C@@H](O)C[C@@H](O)CC(=O)[O-].[Ca+2] (relative stereo) [Crystalline form IV, (R-(R*,R*))-2-(4-fluorophenyl-beta, delta-dihydroxy-5-(1-methylethyl)-3-phenyl-4-((phenylamino)carbonyl)-1H-pyrrole-1-heptanoic acid hemicalcium salt] | highly sensitive to oxidation | 1.14 | 3.67 | –
3 | CC(C)c1c(C(=O)Nc2ccccc2)c(-c2ccccc2)c(-c2ccc(F)cc2)n1CC[C@@H](O)C[C@@H](O)CC(=O)O.CC(C)c1c(C(=O)Nc2ccccc2)c(-c2ccccc2)c(-c2ccc(F)cc2)n1CC[C@@H](O)C[C@@H](O)CC(=O)O.CC(C)c1c(C(=O)Nc2ccccc2)c(-c2ccccc2)c(-c2ccc(F)cc2)n1CC[C@@H](O)C[C@@H](O)CC(=O)[O-].CC(C)c1c(C(=O)Nc2ccccc2)c(-c2ccccc2)c(-c2ccc(F)cc2)n1CC[C@@H](O)C[C@@H](O)CC(=O)[O-].[Ca+2] (relative stereo) [Crystalline form I, (R-(R*,R*))-2-(4-fluorophenyl-beta, delta-dihydroxy-5-(1-methylethyl)-3-phenyl-4-((phenylamino)carbonyl)-1H-pyrrole-1-heptanoic acid hemicalcium salt] | stable to oxygen and oxidation | 0.04 | 0.07 | –
4 | CC(C)c1c(C(=O)Nc2ccccc2)c(-c2ccccc2)c(-c2ccc(F)cc2)n1CC[C@@H](O)C[C@@H](O)CC(=O)O.CC(C)c1c(C(=O)Nc2ccccc2)c(-c2ccccc2)c(-c2ccc(F)cc2)n1CC[C@@H](O)C[C@@H](O)CC(=O)O.CC(C)c1c(C(=O)Nc2ccccc2)c(-c2ccccc2)c(-c2ccc(F)cc2)n1CC[C@@H](O)C[C@@H](O)CC(=O)[O-].CC(C)c1c(C(=O)Nc2ccccc2)c(-c2ccccc2)c(-c2ccc(F)cc2)n1CC[C@@H](O)C[C@@H](O)CC(=O)[O-].[Ca+2] (relative stereo) [Crystalline form II, (R-(R*,R*))-2-(4-fluorophenyl-beta, delta-dihydroxy-5-(1-methylethyl)-3-phenyl-4-((phenylamino)carbonyl)-1H-pyrrole-1-heptanoic acid hemicalcium salt] | slightly sensitive to oxidation | 0.25 | 0.71 | –
5 | CC(C)c1c(C(=O)Nc2ccccc2)c(-c2ccccc2)c(-c2ccc(F)cc2)n1CC[C@@H](O)C[C@@H](O)CC(=O)O.CC(C)c1c(C(=O)Nc2ccccc2)c(-c2ccccc2)c(-c2ccc(F)cc2)n1CC[C@@H](O)C[C@@H](O)CC(=O)O.CC(C)c1c(C(=O)Nc2ccccc2)c(-c2ccccc2)c(-c2ccc(F)cc2)n1CC[C@@H](O)C[C@@H](O)CC(=O)[O-].CC(C)c1c(C(=O)Nc2ccccc2)c(-c2ccccc2)c(-c2ccc(F)cc2)n1CC[C@@H](O)C[C@@H](O)CC(=O)[O-].[Ca+2] (relative stereo) [Amorphous ATV, (R-(R*,R*))-2-(4-fluorophenyl-beta, delta-dihydroxy-5-(1-methylethyl)-3-phenyl-4-((phenylamino)carbonyl)-1H-pyrrole-1-heptanoic acid hemicalcium salt] | – | 1.04 | 3.4 | highly sensitive to oxidation
